Reference: PubChem BioAssay AID1963851 (Molecular Pharmacology Branch, DTP, NCI, 2024)
pIC50: −log10 of the molar value.

Test system: 188146-221-R-J1-PDC complex spheroid viability
Experiment: Anticancer human tumor 188146-221-R-J1-PDC patient-derived colon adenocarcinoma cell line growth inhibition [POLQ]
Details: for pIC50: curve of first compound; for viability, T/C: stronger effect = lower value; active = viability on the fitted dose curve at most 10% of control; inactive = the rest
Experimental: Multicellular complex tumor spheroid response to Polymerase (POL) inhibitors (novobiocin, ART-558, RP6685) in combination with a variety of drugs and investigational agents in selected tumor cell lines
The POL inhibitors (novobiocin, ART-558, and RP6685) were evaluated both individually and in combination with standard of care and investigational anticancer small molecules within a complex spheroid model of solid tumors. . Complex spheroids include a stromal component modeled by human endothelial cells (HUVEC) and fibroblasts modeled by human mesenchymal stem cells (MSCs). The concentration ranges selected for each drug and investigational agent were based upon clinically achievable concentrations if the clinical Cmax of the agent was known.
Compounds. The drugs and investigational agents: novobiocin (NSC847541), ART-558 (NSC835418), RP-6685 (NSC848927), peposertib (NSC802822), ceralasertib (NSC780249), elimusertib (NSC800525), camonsertib (NSC841442), AZD-1390 (NSC803789), olaparib (NSC753686), talazoparib (NSC767125), rucaparib (NSC756644), sotorasib (NSC818433), MRTX-1133 (NSC836407), SN-38 (NSC673596), topotecan (NSC609699), epotoside (NSC141540), doxorubicin (NSC123127), gemcitabine (NSC613327), 5-fluorouracil (NSC19893), paclitaxel (NSC125973), vemurafenib (NSC761431), MSA-2 (NSC828583), SN-011 (NSC837082), adavosertib (NSC754352), prexasertib (NSC758257), carboplatin (NSC241240) and oxaliplatin (NSC266046), were obtained from the National Cancer Institute (NCI) Developmental Therapeutics Program Chemical Repository (21). The FDA-approved anticancer drug set is available from the Developmental Therapeutics Program at https://dtp.cancer.gov/organization/dscb/obtaining/. […] The stock solutions were prepared in dimethyl sulfoxide (DMSO, Sigma-Aldrich, St. Louis, MO, cat. D2650), except for the platinum compounds which were prepared in saline (Quality Biological, Gaithersburg, MD, cat. 114-055-101), at 800-fold the tested concentration and stored at -70 degrees C prior to their use. All drugs and investigational agents were tested over a range starting from a high concentration at or near the clinical Cmax and decreasing in half-log increments. If the clinical Cmax for an agent had not been determined, the highest concentration tested was 10 microM, except for SN-38, which was tested at a high concentration of 1 microM.
Cell Culture. All cells were maintained in an incubator at 37 degrees C and 5% CO2 with 95% humidity. The PDC lines were cultured according to standard operating procedures established by the NCI PDMR (https://pdmr.cancer.gov). Table 3 of the manuscript, lists the cell lines along with the number of the three cell types plated to form the mct-spheroids and media for tumor cell growth. After thawing, all PDC lines, except 997537-175-T-J1-PDC and 415267-285-R-J2-PDC, were cultured in Matrigel-coated flasks prepared with a working solution of 1X Ham's F-12 nutrient mix, without supplementation (Thermo Fisher Scientific, cat. 11765054), 100 U/mL penicillin-streptomycin (Thermo Fisher Scientific, cat. 15140122), and 2.5% Matrigel (Corning Inc., Corning, NY, cat. 354248) for the first three passages. The two PDC lines 997537-175-T-J1-PDC and 415267-285-R-J2-PDC were cultured on uncoated flasks. The 857933-349-R-J2-PDC line was cultured in 6C/Colon 1B media containing advanced DMEM/F-12 (Thermo Fisher Scientific, cat. 12634028), 10 mM HEPES (Thermo Fisher Scientific, cat. 15630080), 1X GlutaMAX supplement (Thermo Fisher Scientific, cat. 35050061), 0.1 mg/mL primocin (InvivoGen, San Diego, CA, cat. ant-pm-2), 10% defined fetal bovine serum, heat inactivated (HyClone Laboratories Inc., Logan, UT, cat. SH30070.03HI), 50% L-WRN conditioned media (ATCC, cat. CRL-3276), 1.25 mM N-Acetyl-L-cysteine (Sigma-Aldrich, cat. A9165), 10 mM nicotinamide (Sigma-Aldrich, cat. N0636), 1X B-27 supplement (Thermo Fisher Scientific, cat. 17504044), 1X N-2 supplement (Thermo Fisher Scientific, cat. […]

[1] = second compound 0.0316 µM, first compound 0.0316 µM
[2] = second compound 0.0316 µM, first compound 0.1 µM
[3] = second compound 0.0316 µM, first compound 0.316 µM
[4] = second compound 0.0316 µM, first compound 1 µM
[5] = second compound 0.0316 µM, first compound 3.16 µM
[6] = second compound 0.0316 µM, first compound 10 µM
[7] = second compound 0.1 µM, first compound 0.0316 µM
[8] = second compound 0.1 µM, first compound 0.1 µM
[9] = second compound 0.1 µM, first compound 0.316 µM
[10] = second compound 0.1 µM, first compound 1 µM
[11] = second compound 0.1 µM, first compound 3.16 µM
[12] = second compound 0.1 µM, first compound 10 µM
[13] = second compound 0.316 µM, first compound 0.0316 µM
[14] = second compound 0.316 µM, first compound 0.1 µM
[15] = second compound 0.316 µM, first compound 0.316 µM
[16] = second compound 0.316 µM, first compound 1 µM
[17] = second compound 0.316 µM, first compound 3.16 µM
[18] = second compound 0.316 µM, first compound 10 µM
[19] = second compound 1 µM, first compound 0.0316 µM
[20] = second compound 1 µM, first compound 0.1 µM
[21] = second compound 1 µM, first compound 0.316 µM
[22] = second compound 1 µM, first compound 1 µM
[23] = second compound 1 µM, first compound 3.16 µM
[24] = second compound 1 µM, first compound 10 µM
[25] = second compound 3.16 µM, first compound 0.0316 µM
[26] = second compound 3.16 µM, first compound 0.1 µM
[27] = second compound 3.16 µM, first compound 0.316 µM
[28] = second compound 3.16 µM, first compound 1 µM
[29] = second compound 3.16 µM, first compound 3.16 µM
[30] = second compound 3.16 µM, first compound 10 µM
[31] = second compound 10 µM, first compound 0.0316 µM
[32] = second compound 10 µM, first compound 0.1 µM
[33] = second compound 10 µM, first compound 0.316 µM
[34] = second compound 10 µM, first compound 1 µM
[35] = second compound 10 µM, first compound 3.16 µM
[36] = second compound 10 µM, first compound 10 µM
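Note: spheroids exposed to compounds for seven days.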

COc1cccc2c1C(=O)c1c(O)c3c(c(O)c1C2=O)CC(O)(C(=O)CO)CC3OC1CC(N)C(O)C(C)O1 (centres undefined) + Nc1ccc(C#CCN(C(=O)Cc2ncc(C(F)(F)F)cc2C(F)(F)F)c2ccc(F)cc2)nn1
6.87: pIC50 (second compound 0.0316 µM)
7.16: pIC50 (second compound 0.316 µM)
7.09: pIC50 (second compound 1 µM)
7.24: pIC50 (second compound 3.16 µM)
7.21: pIC50 (second compound 10 µM)
6.99: pIC50 (second compound 0.1 µM)
active: viability, T/C [4] 5.37% | viability, T/C [5] 0.23% | viability, T/C [6] 0.7% | viability, T/C [10] 5.02% | viability, T/C [11] 0.21% | viability, T/C [12] 0.47% | viability, T/C [17] 0.15% | viability, T/C [18] 0.48% | viability, T/C [22] 5.88% | viability, T/C [23] 0.44% | viability, T/C [24] 0.58% | viability, T/C [28] 7.19% | viability, T/C [29] 0.42% | viability, T/C [30] 0.9% | viability, T/C [34] 5.04% | viability, T/C [35] 0.39% | viability, T/C [36] 1.33%
inactive: viability, T/C [1] 67.5% | viability, T/C [2] 57.8% | viability, T/C [3] 26.7% | viability, T/C [7] 80.5% | viability, T/C [8] 48.3% | viability, T/C [9] 29.4% | viability, T/C [13] 67.8% | viability, T/C [14] 40% | viability, T/C [15] 25% | viability, T/C [16] 9.55% | viability, T/C [19] 83.7% | viability, T/C [20] 36.7% | viability, T/C [21] 29.5% | viability, T/C [25] 64.5% | viability, T/C [26] 34.2% | viability, T/C [27] 24.8% | viability, T/C [31] 63.2% | viability, T/C [32] 38.7% | viability, T/C [33] 25.3%

CC1COCCN1c1cc(C2(O)CC3CCC(C2)O3)c2cnn(-c3ccn[nH]3)c2n1 (centres undefined) + COC1C(OC(N)=O)C(O)C(Oc2ccc3c(O)c(NC(=O)c4ccc(O)c(CC=C(C)C)c4)c(=O)oc3c2C)OC1(C)C
inactive: viability, T/C [1] 93.4% | viability, T/C [2] 68.8% | viability, T/C [3] 53.1% | viability, T/C [4] 25.5% | viability, T/C [5] 18% | viability, T/C [7] 94.5% | viability, T/C [8] 78.5% | viability, T/C [9] 56.9% | viability, T/C [10] 30.9% | viability, T/C [11] 21.2% | viability, T/C [13] 94.7% | viability, T/C [14] 74.1% | viability, T/C [15] 57% | viability, T/C [16] 35.4% | viability, T/C [17] 17% | viability, T/C [19] 93.8% | viability, T/C [20] 79.3% | viability, T/C [21] 57.2% | viability, T/C [22] 30.6% | viability, T/C [23] 17.5% | viability, T/C [25] 82.1% | viability, T/C [26] 67.2% | viability, T/C [27] 51.3% | viability, T/C [28] 26.3% | viability, T/C [29] 14.9% | viability, T/C [31] 90.5% | viability, T/C [32] 62.4% | viability, T/C [33] 41.8% | viability, T/C [34] 22.8% | viability, T/C [35] 19%
6.53: pIC50 (second compound 0.0316 µM)
6.37: pIC50 (second compound 0.1 µM) | pIC50 (second compound 0.316 µM) | pIC50 (second compound 1 µM)
6.52: pIC50 (second compound 3.16 µM)
active: viability, T/C [6] 9.03% | viability, T/C [12] 8.19% | viability, T/C [18] 9.09% | viability, T/C [24] 9.21% | viability, T/C [30] 8.05% | viability, T/C [36] 7.81%
6.71: pIC50 (second compound 10 µM)
